As a reminder, the Dmax is the greatest extent of degradation seen. For orientation: DC50 means the midpoint of the concentration-degradation curve.

Where two headings read alike, the source gives them in different places.

For this experiment, the target named is T1, LRRK2 (endogenous, HiBit tagged) (Homo sapiens, UniProt Q5S007).
T1 construct: endogenous in cells; host or cells: HEK293 cells with HiBit knock-in at the endogenous LRRK2 locus, stably expressing firefly luciferase
Put plainly: Endogenous LRRK2 degradation assay, endogenous gene C-terminally HiBit-tagged in HEK293 cells (Nano-Glo Dual Luciferase). It counts as cell-based. In a few lines:
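LRRK2-HiBit quantified via Nano-Glo Dual Luciferase in HEK293 knock-in cells co-expressing firefly luciferase, after 24 h exposure to compound (1 μM final top, 1:3, 11 points). Values normalised to DMSO median per plate and curve-fitted; Alamar Blue viability run alongside.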
(The HiBiT peptide binds its large partner to form an active luciferase.)

[1] abbreviates: endogenous HiBit-tagged LRRK2, HEK293 cells, 24 hours, read-out: **Endogenous WT Dmax (%).
[2] abbreviates: endogenous HiBit-tagged LRRK2, HEK293 cells, 24 hours, read-out: *Endogenous WT DC50.
The mark [3] stands for this setting: endogenous HiBit-tagged LRRK2 in HEK293 cells, 24 hours treatment, read-out: Endogenous WT DC50.
The mark [4] stands for this setting: endogenous HiBit-tagged LRRK2 in HEK293 cells, 24 hours treatment, read-out: Endogenous WT Dmax.
Where [5] appears, read: endogenous HiBit-tagged LRRK2 in HEK293 cells, 24 hours treatment, read-out: **Endogenous WT Dmax (%).
The mark [6] stands for this setting: endogenous HiBit-tagged LRRK2 in HEK293 cells, 24 hours treatment, read-out: *Endogenous WT DC50.

T1 sequence (Q5S007 whole entry): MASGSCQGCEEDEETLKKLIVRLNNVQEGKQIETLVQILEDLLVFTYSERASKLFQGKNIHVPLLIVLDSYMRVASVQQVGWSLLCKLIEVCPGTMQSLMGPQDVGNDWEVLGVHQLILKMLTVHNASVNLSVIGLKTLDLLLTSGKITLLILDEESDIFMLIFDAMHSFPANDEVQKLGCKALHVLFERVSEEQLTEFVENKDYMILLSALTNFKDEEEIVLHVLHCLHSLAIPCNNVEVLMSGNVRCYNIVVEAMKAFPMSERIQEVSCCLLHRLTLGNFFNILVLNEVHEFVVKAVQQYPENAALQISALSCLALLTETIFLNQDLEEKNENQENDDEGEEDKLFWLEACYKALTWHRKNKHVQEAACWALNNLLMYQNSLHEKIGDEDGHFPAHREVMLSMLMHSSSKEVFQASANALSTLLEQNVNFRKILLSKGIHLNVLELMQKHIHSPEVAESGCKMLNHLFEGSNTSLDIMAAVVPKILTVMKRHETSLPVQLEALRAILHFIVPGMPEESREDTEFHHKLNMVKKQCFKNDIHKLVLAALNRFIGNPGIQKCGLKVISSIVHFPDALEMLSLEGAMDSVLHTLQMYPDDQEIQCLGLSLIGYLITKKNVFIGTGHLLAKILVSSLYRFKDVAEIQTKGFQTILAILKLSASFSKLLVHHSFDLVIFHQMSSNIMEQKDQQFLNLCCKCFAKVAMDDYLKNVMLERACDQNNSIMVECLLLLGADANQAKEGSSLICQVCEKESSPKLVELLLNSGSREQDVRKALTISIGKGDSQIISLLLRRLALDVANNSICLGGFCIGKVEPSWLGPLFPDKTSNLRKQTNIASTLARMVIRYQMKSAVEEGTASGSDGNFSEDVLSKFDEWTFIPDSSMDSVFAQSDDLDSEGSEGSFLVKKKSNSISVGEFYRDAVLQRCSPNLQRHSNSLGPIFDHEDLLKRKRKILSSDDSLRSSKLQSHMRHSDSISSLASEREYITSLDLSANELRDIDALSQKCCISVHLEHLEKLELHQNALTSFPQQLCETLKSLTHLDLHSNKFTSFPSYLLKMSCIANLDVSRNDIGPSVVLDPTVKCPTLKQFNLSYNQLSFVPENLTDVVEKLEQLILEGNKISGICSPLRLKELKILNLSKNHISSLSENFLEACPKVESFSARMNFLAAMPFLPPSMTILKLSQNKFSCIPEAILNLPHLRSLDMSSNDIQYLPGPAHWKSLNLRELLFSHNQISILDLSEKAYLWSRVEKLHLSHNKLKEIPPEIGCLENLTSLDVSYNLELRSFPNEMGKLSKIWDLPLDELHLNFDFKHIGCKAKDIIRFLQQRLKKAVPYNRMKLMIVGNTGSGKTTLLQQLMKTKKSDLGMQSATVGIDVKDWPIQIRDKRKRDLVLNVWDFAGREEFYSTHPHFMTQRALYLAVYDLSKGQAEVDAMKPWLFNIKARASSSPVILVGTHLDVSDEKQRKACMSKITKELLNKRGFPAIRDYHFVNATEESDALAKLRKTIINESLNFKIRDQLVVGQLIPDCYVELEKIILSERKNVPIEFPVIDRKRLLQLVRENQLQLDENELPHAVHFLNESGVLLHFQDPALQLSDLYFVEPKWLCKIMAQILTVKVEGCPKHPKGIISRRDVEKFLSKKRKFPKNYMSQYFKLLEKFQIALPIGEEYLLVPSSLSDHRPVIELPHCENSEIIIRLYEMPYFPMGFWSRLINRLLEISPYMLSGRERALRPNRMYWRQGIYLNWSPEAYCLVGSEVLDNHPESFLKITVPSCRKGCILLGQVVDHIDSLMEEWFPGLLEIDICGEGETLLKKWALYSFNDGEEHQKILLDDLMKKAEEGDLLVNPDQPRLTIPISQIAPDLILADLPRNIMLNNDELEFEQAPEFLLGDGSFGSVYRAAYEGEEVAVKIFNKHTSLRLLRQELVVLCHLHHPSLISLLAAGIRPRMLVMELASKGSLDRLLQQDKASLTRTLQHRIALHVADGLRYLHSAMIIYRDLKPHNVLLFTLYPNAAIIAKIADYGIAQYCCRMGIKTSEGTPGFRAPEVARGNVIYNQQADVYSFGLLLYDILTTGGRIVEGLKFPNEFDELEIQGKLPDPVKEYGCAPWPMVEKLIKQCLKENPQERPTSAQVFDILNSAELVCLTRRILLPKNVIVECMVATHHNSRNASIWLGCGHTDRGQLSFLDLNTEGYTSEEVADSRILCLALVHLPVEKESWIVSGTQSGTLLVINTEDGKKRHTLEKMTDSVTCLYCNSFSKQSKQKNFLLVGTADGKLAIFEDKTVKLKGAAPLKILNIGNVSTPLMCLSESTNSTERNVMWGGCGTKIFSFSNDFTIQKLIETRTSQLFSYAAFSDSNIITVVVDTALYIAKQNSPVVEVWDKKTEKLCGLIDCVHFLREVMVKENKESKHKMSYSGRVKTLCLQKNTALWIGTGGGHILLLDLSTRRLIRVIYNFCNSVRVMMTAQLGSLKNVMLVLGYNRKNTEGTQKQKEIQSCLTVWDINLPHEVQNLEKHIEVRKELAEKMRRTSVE

Consider `C[C@H]1CN(c2cc(-c3n[nH]c4cc(F)c(OC5(C)CC5)cc34)ncn2)CCN1CC1(F)CCN(CC2CCN(c3ccc4c(c3F)CN(C3CCC(=O)NC3=O)C4=O)CC2)CC1` (stereo partly drawn) [Compound 192, 3-[4-fluoro-5-[4-[[4-fluoro-4-[[(2S)-4-[6-[6-fluoro-5-(1-methylcyclopropoxy)-1H-indazol-3-yl]pyrimidin-4-yl]-2-methyl-piperazin-1-yl]methyl]-1-piperidyl]methyl]-1-piperidyl]-1-oxo-isoindolin-2-yl]piperidine-2,6-dione], for which the Dmax under setting [1] is not below 70%. Moreover, under setting [2], the DC50 was less than 10 nM.
For `CC1(Oc2ccc3[nH]nc(-c4cc(N5CCC(OCCN6CCC7(CN(c8ccc9c(c8F)CN(C8CCC(=O)NC8=O)C9=O)C7)C(F)(F)C6)CC5)ncn4)c3c2)CC1` (stereo not drawn) [Compound 362, 3-[5-(5,5-difluoro-7-{2-[(1-{6-[5-(1-methylcyclopropoxy)-1H-indazol-3-yl]pyrimidin-4-yl}piperidin-4-yl)oxy]ethyl}-2,7-diazaspiro[3.5]nonan-2-yl)-4-fluoro-1-oxo-2,3-dihydro-1H-isoindol-2-yl]piperidine-2,6-dione], the DC50 under setting [3] is less than 10 nM. Under setting [4], the Dmax lay in the range of 50 to 70%.
Taken in the same sequence, the figures for `CC1(Oc2ccc3n[nH]c(-c4cc(N5CCC(CN6CCN(CC7(F)CCN(c8ccc9c(c8F)CN(C8CCC(=O)NC8=O)C9=O)CC7)CC6)CC5)ncn4)c3c2)CC1` (stereo not drawn) [Compound 209, 3-[4-fluoro-5-[4-fluoro-4-[[4-[[1-[6-[5-(1-methylcyclopropoxy)-2H-indazol-3-yl]pyrimidin-4-yl]-4-piperidyl]methyl]piperazin-1-yl]methyl]-1-piperidyl]-1-oxo-isoindolin-2-yl]piperidine-2,6-dione] were less than 10 nM and not below 70%.
Take `COc1c(N2CCC(CN3CCN(CC4CCN(c5cc(-c6n[nH]c7cnc(OC8(C)CC8)cc67)ncn5)CC4)CC3(C)C)CC2)ccc2c1CN(C1CCC(=O)NC1=O)C2=O` (stereo not drawn) [Compound 277, 3-{5-[4-({2,2-dimethyl-4-[(1-{6-[5-(1-methylcyclopropoxy)-1H-pyrazolo[3,4-c]pyridin-3-yl]pyrimidin-4-yl}piperidin-4-yl)methyl]piperazin-1-yl}methyl)piperidin-1-yl]-4-methoxy-1-oxo-2,3-dihydro-1H-isoindol-2-yl}piperidine-2,6-dione]: under setting [5], the Dmax is 50 to 70%. In addition, the DC50 under setting [6] is less than 10 nM.
Taken in the same sequence, the figures for `COc1c(N2CC3(CCN(CC4CCN(c5cc(-c6n[nH]c7ccc(OC8(C)CC8)cc67)ncn5)CC4)CC3(F)F)C2)ccc2c1CN(C1CCC(=O)NC1=O)C2=O` (stereo not drawn) [Compound 332, 3-(5-{5,5-difluoro-7-[(1-{6-[5-(1-methylcyclopropoxy)-1H-indazol-3-yl]pyrimidin-4-yl}piperidin-4-yl)methyl]-2,7-diazaspiro[3.5]nonan-2-yl}-4-methoxy-1-oxo-2,3-dihydro-1H-isoindol-2-yl)piperidine-2,6-dione] were 50 to 70% and less than 10 nM.
Take `CC1(Oc2cc3c(-c4cc(N5CCC(CN6CCN(CC7CCN(c8cc9c(cc8F)C(=O)N(C8CCC(=O)NC8=O)C9)CC7)CC6)CC5)ncn4)n[nH]c3cn2)CC1` (stereo not drawn) [Compound 191, 3-[6-fluoro-5-[4-[[4-[[1-[6-[5-(1-methylcyclopropoxy)-1H-pyrazolo[3,4-c]pyridin-3-yl]pyrimidin-4-yl]-4-piperidyl]methyl]piperazin-1-yl]methyl]-1-piperidyl]-1-oxo-isoindolin-2-yl]piperidine-2,6-dione]: the Dmax under setting [1] is not below 70%. For the same compound, the DC50 under setting [2] was less than 10 nM.
For `CC1(Oc2ccc3n[nH]c(-c4cc(N5CCC(CN6CCN(CC7CCN(c8ccc(F)c9c8CN(C8CCC(=O)NC8=O)C9=O)CC7)CC6)CC5)ncn4)c3c2)CC1` (stereo not drawn) [Compound 214, 3-[7-fluoro-4-[4-[[4-[[1-[6-[5-(1-methylcyclopropoxy)-2H-indazol-3-yl]pyrimidin-4-yl]-4-piperidyl]methyl]piperazin-1-yl]methyl]-1-piperidyl]-1-oxo-isoindolin-2-yl]piperidine-2,6-dione], the DC50 under setting [3] is less than 10 nM. The Dmax under setting [4] was not below 70%.
On the same counts, the results for `CC1(Oc2ccc3[nH]nc(-c4cc(N5CCC(CN6CCC(F)(CC7CCN(c8c(F)cc9c(c8F)CN(C8CCC(=O)NC8=O)C9=O)CC7)CC6)CC5)ncn4)c3c2)CC1` (stereo not drawn) [Compound 242, 3-{4,6-difluoro-5-[4-({4-fluoro-1-[(1-{6-[5-(1-methylcyclopropoxy)-1H-indazol-3-yl]pyrimidin-4-yl}piperidin-4-yl)methyl]piperidin-4-yl}methyl)piperidin-1-yl]-1-oxo-2,3-dihydro-1H-isoindol-2-yl}piperidine-2,6-dione] are less than 10 nM and 50 to 70%.
As for `COc1c(N2CCN(C[C@@H]3CO[C@@H](CN4CCN(c5cc(-c6[nH]nc7ccc(OC8(C)CC8)cc67)ncn5)CC4)CO3)CC2)ccc2c1CN(C1CCC(=O)NC1=O)C2=O` (stereo partly drawn) [Compound 291, 3-[4-methoxy-5-(4-{[(2r,5s)-5-[(4-{6-[5-(1-methylcyclopropoxy)-2H-indazol-3-yl]pyrimidin-4-yl}piperazin-1-yl)methyl]-1,4-dioxan-2-yl]methyl}piperazin-1-yl)-1-oxo-2,3-dihydro-1H-isoindol-2-yl]piperidine-2,6-dione], the Dmax under setting [5] was not below 70%. Further, the DC50 under setting [6] is less than 10 nM.
Consider `COc1c(N2CCC(N3CC(OC4CCN(c5cc(-c6[nH]nc7ccc(OC8(C)CC8)cc67)ncn5)CC4)C3)CC2)ccc2c1CN(C1CCC(=O)NC1=O)C2=O` (stereo not drawn) [Compound 356, 3-[4-methoxy-5-(4-{3-[(1-{6-[5-(1-methylcyclopropoxy)-2H-indazol-3-yl]pyrimidin-4-yl}piperidin-4-yl)oxy]azetidin-1-yl}piperidin-1-yl)-1-oxo-2,3-dihydro-1H-isoindol-2-yl]piperidine-2,6-dione], for which the Dmax under setting [5] fell in the range of 50 to 70%. Besides, the DC50 under setting [6] was less than 10 nM.
Take `CC1(Oc2ccc3n[nH]c(-c4cc(N5CCC(CN6CCN(CC7CCN(c8c(F)ccc9c8CN(C8CCC(=O)NC8=O)C9=O)CC7)CC6)CC5)ncn4)c3c2)CC1` (stereo not drawn) [Compound 217, 3-[5-fluoro-4-[4-[[4-[[1-[6-[5-(1-methylcyclopropoxy)-2H-indazol-3-yl]pyrimidin-4-yl]-4-piperidyl]methyl]piperazin-1-yl]methyl]-1-piperidyl]-1-oxo-isoindolin-2-yl]piperidine-2,6-dione]: the DC50 under setting [3] is 10 to 50 nM. For the same compound, the Dmax under setting [4] was in the range of 50 to 70%.
Consider `COc1c(N2CCC(CN3CCN(CC4CCN(c5cc(-c6n[nH]c7cnc(OC8(C)CC8)cc67)ncn5)CC4)C[C@H]3C)CC2)ccc2c1CN(C1CCC(=O)NC1=O)C2=O` (stereo partly drawn) [Compound 283, 3-[4-methoxy-5-(4-{[(2R)-2-methyl-4-[(1-{6-[5-(1-methylcyclopropoxy)-1H-pyrazolo[3,4-c]pyridin-3-yl]pyrimidin-4-yl}piperidin-4-yl)methyl]piperazin-1-yl]methyl}piperidin-1-yl)-1-oxo-2,3-dihydro-1H-isoindol-2-yl]piperidine-2,6-dione], for which the Dmax under setting [5] is not below 70%. Moreover, the DC50 under setting [6] is less than 10 nM.

These data come from patent publication US12559506B2, “Indazole based compounds and associated methods of use” (Arvinas Operations, Inc., priority 2021, dated 2026).
